Source: patent US20050107289A1, “Anti-microbial peptides and compositions” (priority 2001, published 2005)
Read-outs that look alike come from different tables or passages of the source. Non-standard residues stand in square brackets, D forms with d. Residues, ends and D or L forms follow the SMILES beside them.

Legend:
[1] = Proton transport in vesicles with pH gradient; settings: vesicles pH 6.5 inside, pH 5.5 outside
Description: Formation of supramolecular structures that can permeabilize membranes was also inferred from proton transport activity. Vesicles were prepared having pH 6.5 inside and pH 5.5 in the outside bulk solution. The collapse of the imposed pH gradient in these vesicles, upon formation of the putative transmembrane channel structure, was studied by monitoring the fluorescence intensity of an entrapped pH-sensitive dye. (V. E. Carmichael et al, in J.Am. Chem. Soc. (1989), vol. 111, pages 767-769). Addition of peptide cyclo[-(Trp-D-Leu)3-Gln-D-Leu-]
Unilamellar vesicles were prepared by the reverse-phase evaporation using DPPC, OPPC, cholesterol in the ratio of 1:1:2 in a solution containing 5(6)-carboxyfluorescein (20 mM in phosphate/saline buffer: 137 mM NaCl, 2.6 mM KCI, 6.4 mM Na2HPO4, 1.4 mM KH2PO4, pH 6.5) according to the method of F. Szoka et al. in Proc. Natl. Acad. Sci. USA (1978), vol. 75, pages 4194-4198. Liposomes were then sized by multiple extrusions through Nucleopore® polycarbonate membranes (10 times, 50 psi, using 0.8 and 2×0.4 micron filter stacks) and the untrapped 5(6)-carboxyfluorescein was removed by size exclusion chromatography (Sephadex G-25 column 1×30 cm) using the same phosphate/saline buffer according to the method of F. Olson et al. in Biochim. […] Vesicles formed in this way are approximately 150 nanometer in diameter as determined by electron microscopy. […] In each experiment, […] of the stock vesicle solution (3.5×10^−3 M in phospholipids) was added to pH 5.5 buffer (1.3 ml, 137 mM NaCl, 2.6 mM KCl, 6.4 Na2HPO4, 1.4 KH2PO4) and placed in a 1 cm quartz cuvette inside a stirring thermojacketed sample holder of the fluorescence instrument and equilibrated at 25° C. for 15 minutes with gentle stirring. To the cuvette, through an injector port, […] of the peptide dissolved in DMSO was added with continuous fluorescence monitoring at 520 nm (excitation at 470 nm). The observed data were then normalized for comparison into the fractional change in fluorescence ((I0-It)/(I0-I∞)) (V. E. Carmichael et al, in J.Am. Chem. Soc. (1989), vol. 111, pages 767-769)).

[2] = system: S. aureus (MRSA) ATCC 33591; assay type: cell-based, Staphylococcus aureus; settings: for MRSA (in vitro activity): Table 9
Outline: (§1)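 First, peptide stocks in 5% DMSO/9% sucrose were quantified and diluted 2-fold over roughly 400-2 μg/ml. Next, overnight cultures were diluted 4000-fold to ~2.5×10^5 cfu/ml and combined with peptide. Minimum inhibitory concentrations followed NCCLS broth macro- or microdilution procedures.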

[3] = system: E. coli JM109(DE3); assay type: cell-based, Escherichia coli; settings: JM109
Outline: as §1

[4] = system: murine red blood cells; test: Red blood cell hemolysis; assay type: cell-based, mouse; design: RBC Hemolysis (HD50): unit not given here
Outline: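 Washed murine erythrocytes at 5% in saline with 10% FBS were exposed to serial peptide dilutions for 30 min at 37° C. Supernatant absorbance at 560 nm was read, with saline as 0% and 1% Triton X-100 as 100% hemolysis.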

[5] = system: vancomycin-resistant Enterococus faecalis (VRE)(ATCC 51575); assay type: cell-based, Enterococcus faecalis; design: key to VRE (in vitro activity): peptide concentration in μg/ml (broth dilution assay); settings: for VRE (in vitro activity): Table 9
Outline: as §1

[6] = system: Bacillus cereus ATCC 11778; assay type: cell-based
Outline: as §1

[7] = system: Streptococcus pneumoniae (ATCC 6301); assay type: cell-based
Outline: as §1

[8] = system: S. aureus (MRSA) (ATCC No. 33591); test: Time-killing curve, S. aureus MRSA ATCC 33591; assay type: cell-based, Staphylococcus aureus; settings: FIG. 8a; at MIC concentrations
Description: (§2) The speed at which several of the cyclic peptides of the invention kill E. coli JM 109 (DE3), Enterococcus faecium SP 180 and S. aureus (MRSA) (ATCC No. 33591 and 33592) was further tested at room temperature and/or at 37° C. A lower temperature tends to enrich the bacterial cultures for mature bacteria because the bacteria are not growing quickly. […] The presence or absence of immature bacteria in the culture may influence the rate at which the bacteria are killed, because immature bacteria tend to be more susceptible to many forms of antibiotics.
To generate the data shown in FIG. 8a, the log of the number of colony forming units (cfu) per ml of culture was determined as a function of time after treatment of S. aureus (MRSA) (ATCC No. 33591) with cyclo[KHLWLW] (closed circles), cyclo[KRKWLWLW] (closed triangles), and cyclo[KQRWLWLW] (open squares) at MIC concentrations. […] The reduction in cfu count was greater than 3 log units. Cyclic peptide cyclo[KHLWLW] killed effectively all S. aureus (MRSA) within about 60 minutes.

[9] = system: E. coli JM109 (DE3); test: Time-killing curve, E. coli; assay type: cell-based, Escherichia coli; settings: FIG. 8b; at MIC concentrations
Description: as §2
In FIG. 8b, the log of the number of E. coli colony forming units (cfu) per ml of culture is plotted versus time treated with cyclo[KRKWLWLW] (closed triangles), cyclo[KQRWLWLW] (closed circles), cyclo[KHLWLW] (closed squares), and cyclo[KKWLW] (open squares) at MIC concentrations. […] Cyclic peptide cyclo[KHKLWLW] kills effectively all E. coli within about 90 minutes. Cyclic peptides cyclo[KRKWLWLW] and cyclo[KKWLW] kill effectively all of the E. coli within about 130 minutes. […] Nonetheless, these cyclic peptides kill both types of bacteria very quickly.

[10] = system: murine red blood cells; settings: cited from earlier work
[11] = trypsin, α-chymotrypsin, subtilisin, blood plasma; RP-HPLC over 24 h
Description: Cyclic peptides having SEQ ID NO:13, 18, 26, and 29 were assayed for proteolytic susceptibility.

[12] = system: S. aureus MRSA (ATCC 33591); test: Mouse peritonitis model, MRSA protection; assay type: in vivo, mice; design: PD50 MRSA: unit not given here
Description: Bacteria were prepared for in vivo using procedures similar to those as previously described. […] S. aureus MRSA bacteria (ATCC 33591) were grown at 37° C. in 5 mL of Antibiotic Medium-3 (AM-3, Difco Laboratories) with agitation for 12 hours to a stationary phase. Cells were collected by centrifugation, washed twice with saline solution and resuspended in about 10 mL of saline to an O.D.650 of 1.2. This suspension was diluted ten times in a sterilized 5% mucin (Difco) in saline to a concentration of 2-4×10^7 cfu/ml (actual inoculum size was verified by colony counts on agar plates).
Peptides of the invention were tested in mice to ascertain whether they would protect the mice against bacterial infection using procedures similar to those described in N. Frimodt-Moller et al., The Mouse Peritonitis/Sepsis Model, in Zak et al. (eds.) HANDBOOK OF ANIMAL MODELS OF INFECTION 127-37 (Academic Press 1999).
Male Balb-C mice (6 weeks old, approximately 20 g) were used in the study. Staphylococcus aureus MRSA bacteria (ATCC 33591) were grown at 37° C. with agitation for 12 hours to a stationary phase. Cells were collected by centrifugation, washed twice with saline and resuspended to an O.D.650 of 1.4. This suspension was diluted ten times with saline and resuspended to a concentration of 3-5×10^7 cfu/ml. For each peptide five groups of eight mice per group were infected I.P. with 0.5 ml of the above Staphylococcus aureus MRSA preparation (lethal dose). Forty-five minutes to an hour after infection, each group was treated with a different dose of peptide and a control group received vehicle only. Mice were monitored for fourteen days; death was defined as the end point. Median protecting doses (PD50) were calculated following the Reed and Muench method. […] For IV and SQ models peptide was administered immediately after IP infection.

[13] = Toxicity studies in mice; assay type: in vivo; design: LD50(IP) / LD50(IV): unit not given here
Description: Peptides were tested for toxicity in vivo using procedures similar to those described previously. […] Mice (male Balb-C) in groups of 4-8 were given via IV, IP or SQ single bolucdoses of peptides and monitored for 14 days. Toxicity of sublethal doses was assessed based on the behavior and appearance of the mice after peptide administration compared to control mice receiving only vehicle. Signs of acute toxicity included lack of activity, red feet and tail, faster breathing. Death was defined as the end point for lethal doses of peptides.
Toxicology Studies: Initial toxicology studies in mice were conducted to evaluate various routes of drug administration, maximum tolerable dose, and blood and tissue toxicity. Two mice in each dose study were injected with a bolus intravenous (IV), intraperitoneal (IP), or subcutaneous (SQ) doses of peptide SEQ ID NO:8, 18, and 26. For each study, two control animals received vehicle only and no peptide. […] Signs of acute toxicity included any one of the following: lack of activity, red feet and tail, or faster breathing. […] A regimen of […] of peptide SEQ ID NO:18 for three consecutive days was administered to two mice IP and two mice SQ.

[14] = media a: anti-microbial media-3 (AM-3)

Compound	proton / ion transport activity [1]	MRSA MIC ([2]; ATCC 33591)	S. aureus (MRSA) MIC ([2]; ATCC 33591)	MRSA (in vitro activity) [2, 14]	RBC Hemolysis (HD50) [4]	VRE MIC ([5]; ATCC 51575)	VRE (in vitro activity) ([5]; media a: AM-3)	B. cerius MIC [6]	S. pneum. MIC [7]	also measured
cyclo[-(^MeN-D-Ala-Phe)4-]	does not promote proton transport activity	–	–	–	–	–	–	–	–	–
CC(C)C[C@H]1NC(=O)[C@H](Cc2c[nH]cn2)NC(=O)[C@@H](CCCCN)NC(=O)[C@H](Cc2c[nH]c3ccccc23)NC(=O)[C@@H](CC(C)C)NC(=O)[C@H](Cc2c[nH]c3ccccc23)NC1=O [SEQ ID NO:27, cyclo-(D-Lys-His-D-Leu-Trp-D-Leu-Trp)] (cyclo(H[dL]W[dL]W[dK]))	–	10 µg/mL	10 µg/mL	10	25	40 µg/mL	40	5 µg/mL	5 µg/mL	E. coli MIC [3]: 100 µg/mL; time to kill effectively all S. aureus (MRSA) [8]: ≤ 60 min; time to kill effectively all E. coli [9]: ≤ 90 min
cyclo[-(Trp-D-Leu)3-Gln-D-Leu-] [SEQ ID NO:2]	rapid collapse of the pH gradient	–	–	–	–	–	–	–	–	–
MELLITIN [linear peptide that is hemolytic against mammalian red blood cells, reference compound]	–	–	–	–	–	–	–	–	–	MRSA (in vitro activity) ([2]; media b: cation adjusted Meuller Hinton broth (MHBII)): 6.3; RBC Hemolysis (HD50) ([4]; Table 9): 10; VRE (in vitro activity) ([5]; media c: Brain Heart Infusion (BHI)): 6.3; hemolytic concentration against mammalian red blood cells in vitro [10]: about 10 μg/ml
CC(C)C[C@H]1NC(=O)[C@H](Cc2c[nH]c3ccccc23)NC(=O)[C@@H](CCCCN)NC(=O)[C@H](CCCNC(=N)N)NC(=O)[C@@H](CCCCN)NC(=O)[C@H](Cc2c[nH]c3ccccc23)NC(=O)[C@@H](CC(C)C)NC(=O)[C@H](Cc2c[nH]c3ccccc23)NC1=O [SEQ ID NO:19, D-Lys-Arg-D-Lys-Trp-D-Leu-Trp-D-Leu-Trp] (cyclo([dK]R[dK]W[dL]W[dL]W))	–	15 µg/mL	10 µg/mL	15	50	8 µg/mL	8	3 µg/mL	5 µg/mL	time to kill effectively all S. aureus (MRSA) [8]: within about five minutes
cyclo[-(Gln-D-Leu)4]	does not display any ion transport activity	–	–	–	–	–	–	–	–	–
CC(C)C[C@H]1NC(=O)[C@H](CCCCN)NC(=O)[C@@H](CCCCN)NC(=O)[C@H](Cc2c[nH]c3ccccc23)NC(=O)[C@@H](CC(C)C)NC(=O)[C@H](Cc2c[nH]c3ccccc23)NC1=O [SEQ ID NO:26, cyclo-(D-Lys-Lys-D-Leu-Trp-D-Leu-Trp)] (cyclo(K[dL]W[dL]W[dK]))	–	10 µg/mL	10 µg/mL	10	80	40 µg/mL	40	> 10 µg/mL	30 µg/mL	In Vitro MRSA MIC ([2]; ATCC 33591): 10 µg/mL; E. coli MIC [3]: 17 µg/mL; In Vitro RBC MIC [4]: 80 µg/mL; In Vitro VREF MIC ([5]; ATCC 51575): 40 µg/mL; proteolytic stability [11]: stable; PD50 S. aureus MRSA infection [12]: 15 mg/kg; PD50 protective dose where 50% of animals survive ([12]; FIG. 6, mice challenged with lethal doses of MRSA): 10 ± 2 mg/kg; PD50 MRSA ([12]; Table 12, male Balb-C mice, IP infection, IP peptide): 15; In Vivo MRSA PD50 ([12]; Table 13): 15 mg/kg; protection of mice from MRSA infection ([12]; single bolus IP dose of appropriate amount, 45-60 min after infection): completely protect; LD50(IP) ([13]; Table 12, male Balb-C mice): 75; LD50(IV) ([13]; Table 12, male Balb-C mice): 24; LD50 at 14 days ([13]; male, Balb-C, mouse, in vivo, ip, Table 13): 75 mg/kg; signs at highest dose ([13]; mice, IP 50 mg/kg): signs of acute toxicity that were not observable after one hour; tolerability ([13]; mice, IP, maximum tested dose 50 mg/kg): tolerated up to the maximum tested IP dose
